The text below walks through data of ChEMBL document CHEMBL1201862, “PubChem BioAssay data set” (2004).

In general, AC50 refers to the midpoint of the concentration-response curve, whichever way the signal moves. Usually CC50 stands for the concentration at which the toxic effect on the cells reaches its halfway point. In general, IC50 refers to the concentration that gives 50% inhibition.

Active and inactive are the calls of the source. Where only a bound is given, the exact number is not on record here.

For one assay, the system named is HEK293. Description: viability loss in HEK293T cells – cell-based, ATP luminescence, cherry-pick samples, cytotoxicity control, dose response (AID 687005).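 Further: cells exposed to compound for 48 hours.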 Format: functional. As to conditions: Homo sapiens.
Assay [1] can be described thus: HEK293 Cytotoxicity Assay Measured in Cell-Based System Using Plate Reader - 7071-01_Inhibitor_Dose_CherryPick_Activity_Set2. Format: functional.
The nature of assay [2]: toxicity toward HepG2 hepatoma cells – cell-based, dry powder samples, cytotoxicity control, dose response (AID 720568). Format: functional.
The nature of assay [3]: viability of BHK-21 cells – cell-based, secondary screen, cytotoxicity control for flavivirus guanylyltransferase probe project (AID 624078). It is filed as functional.
In assay [4] the target is Delta-type opioid receptor (Homo sapiens, UniProt P41143). The experiment in a line: Late-stage results from the probe development effort to identify antagonists of OPRK1: fluorescence-based cell-based dose response OPRD1 counterscreen. It is filed as functional. (A counterscreen serves to expose hits that act by an unwanted route or on another target.)
In another assay the target is Mu-type opioid receptor (Homo sapiens, UniProt P35372). The experiment in a line: Late-stage results from the probe development effort to identify antagonists of OPRK1: luminescence-based cell-based dose response OPRM1 counterscreen. Format: functional.
The nature of assay [5]: growth inhibition of yeast DHODH-expressing 3D7 parasites – SYBR Green, dry powder samples, dose response (AID 1159570).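 Further: parasite growth measured after 72 hours of compound exposure.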 It is filed as functional, cell-based.
Assay [6] can be described thus: toxicity to human HepG2 hepatoma cells – cell-based, plate reader, dry powder samples, cytotoxicity control, dose response (AID 1159569).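 Further: inhibitor potency with signal falling toward the positive control level.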 It is filed as functional.
A short description of assay [7]: P. falciparum Dd2 growth inhibitors, dose response, SYBR Green, cherry-picked samples (AID 1159567). Format: functional, cell-based.
A short description of assay [8]: Dd2 malaria parasite growth inhibition potency – SYBR Green, dry powder samples, dose response (AID 1159566).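 Further: potency for growth inhibition with lower SYBR green DNA signal.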 It is filed as functional, cell-based.
A short description of assay [9]: growth inhibition of PfATP4-mutant resistant parasites – NITD609-resistant line, SYBR Green, dry powder, dose response (AID 1159571).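 Further: parasites synchronized at ring stage by sorbitol before testing.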 It is filed as functional, cell-based.
The nature of assay [10]: TB: CFU replicating Measured in Microorganism System Using Imaging - 7108-05_Inhibitor_Dose_DryPowder_Activity_Set2. Format: functional.
The target of assay [11] is 1-phosphatidylinositol 4,5-bisphosphate phosphodiesterase gamma-1 (Homo sapiens, UniProt P19174). The experiment in a line: Counterscreen for inhibitors of phospholipase C isozymes (PLC-B3): Fluorescence-based biochemical high throughput dose response assay to identify inhibitors of phospholipase C isozymes (PLC-gamma1).
Assay [12] addresses 1-phosphatidylinositol 4,5-bisphosphate phosphodiesterase beta-3 (Homo sapiens, UniProt Q01970). Description: Fluorescence-based biochemical high throughput dose response assay to identify inhibitors of phospholipase C isozymes (PLC-B3).
Assay [13] in a line: CellTiter-Glo luminescence survival assay, SW480 colon tumor line, concentration-response curve, half-maximal inhibitory concentration (AID 1117338). It is filed as functional. On the technique in general: Cellular ATP, detected with luciferase, serves as a proxy for viable cell number.
The nature of assay [14]: RKO cell viability reduction, dose response, CellTiter-Glo luminescence (AID 1117322). It is filed as functional.
Assay [15] in a line: cytotoxicity toward HCT116 cells – cell-based, CellTiter-Glo luminescence, IC50, dose response (AID 1117332). Format: functional. The note with it: HCT-116.
A short description of assay [16]: SNU-C1 cell viability reduction, dose response, CellTiter-Glo luminescence (AID 1117323). Format: functional, cell-based.
Assay [17] can be described thus: cytotoxicity toward Colo320 cells – cell-based, CellTiter-Glo luminescence, IC50, dose response (AID 1117334). It is filed as functional. The note with it: COLO 320.
A short description of assay [18]: cytotoxicity toward HT-29 cells – cell-based, CellTiter-Glo luminescence, IC50, dose response (AID 1117330). Format: functional.
Assay [19] can be described thus: Reduced DLD-1 viability, concentration-response, CellTiter-Glo luminescence (AID 1117352). Format: functional.

Delta-type opioid receptor, sequence (P41143 whole entry): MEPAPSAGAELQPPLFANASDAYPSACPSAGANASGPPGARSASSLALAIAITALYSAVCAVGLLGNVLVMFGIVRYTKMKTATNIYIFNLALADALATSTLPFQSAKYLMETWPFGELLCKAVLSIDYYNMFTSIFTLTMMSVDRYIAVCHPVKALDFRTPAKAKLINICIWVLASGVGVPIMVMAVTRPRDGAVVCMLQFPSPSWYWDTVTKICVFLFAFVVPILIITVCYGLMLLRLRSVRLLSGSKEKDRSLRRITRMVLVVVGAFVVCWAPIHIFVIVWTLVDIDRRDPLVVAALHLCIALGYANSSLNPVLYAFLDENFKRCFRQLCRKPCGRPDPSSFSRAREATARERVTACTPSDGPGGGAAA
1-phosphatidylinositol 4,5-bisphosphate phosphodiesterase gamma-1, sequence (P19174 whole entry): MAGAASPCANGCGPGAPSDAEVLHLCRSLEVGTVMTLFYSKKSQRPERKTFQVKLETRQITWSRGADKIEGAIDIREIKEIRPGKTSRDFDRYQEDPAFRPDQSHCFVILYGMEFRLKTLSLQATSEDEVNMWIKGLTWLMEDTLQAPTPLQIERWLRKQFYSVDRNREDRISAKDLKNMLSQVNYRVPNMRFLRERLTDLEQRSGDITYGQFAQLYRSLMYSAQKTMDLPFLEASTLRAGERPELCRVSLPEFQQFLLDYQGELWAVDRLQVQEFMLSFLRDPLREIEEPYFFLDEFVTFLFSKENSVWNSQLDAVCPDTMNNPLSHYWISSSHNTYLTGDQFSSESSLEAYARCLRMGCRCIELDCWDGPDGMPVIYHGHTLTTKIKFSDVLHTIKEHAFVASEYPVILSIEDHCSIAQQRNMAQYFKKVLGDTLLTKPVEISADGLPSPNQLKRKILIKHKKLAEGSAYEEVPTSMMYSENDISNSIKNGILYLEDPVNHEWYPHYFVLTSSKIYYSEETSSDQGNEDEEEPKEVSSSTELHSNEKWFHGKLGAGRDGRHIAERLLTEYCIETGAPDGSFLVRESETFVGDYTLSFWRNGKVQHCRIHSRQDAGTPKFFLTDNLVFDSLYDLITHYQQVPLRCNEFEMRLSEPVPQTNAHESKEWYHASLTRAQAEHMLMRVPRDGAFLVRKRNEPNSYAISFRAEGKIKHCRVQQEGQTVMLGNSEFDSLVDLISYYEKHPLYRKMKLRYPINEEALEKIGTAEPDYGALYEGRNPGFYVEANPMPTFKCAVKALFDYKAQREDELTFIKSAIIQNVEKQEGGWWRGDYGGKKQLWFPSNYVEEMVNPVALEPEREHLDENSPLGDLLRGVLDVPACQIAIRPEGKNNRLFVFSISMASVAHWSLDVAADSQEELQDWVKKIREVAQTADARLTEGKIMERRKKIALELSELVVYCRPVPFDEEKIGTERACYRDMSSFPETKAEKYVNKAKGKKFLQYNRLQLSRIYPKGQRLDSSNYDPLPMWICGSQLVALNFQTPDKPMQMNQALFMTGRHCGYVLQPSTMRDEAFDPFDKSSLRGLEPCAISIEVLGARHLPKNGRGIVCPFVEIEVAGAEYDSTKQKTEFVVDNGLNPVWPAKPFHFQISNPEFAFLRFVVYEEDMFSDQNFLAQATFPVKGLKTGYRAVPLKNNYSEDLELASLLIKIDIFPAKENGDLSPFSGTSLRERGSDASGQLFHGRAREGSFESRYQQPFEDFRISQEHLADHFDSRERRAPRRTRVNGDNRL
Mu-type opioid receptor, sequence (P35372 whole entry): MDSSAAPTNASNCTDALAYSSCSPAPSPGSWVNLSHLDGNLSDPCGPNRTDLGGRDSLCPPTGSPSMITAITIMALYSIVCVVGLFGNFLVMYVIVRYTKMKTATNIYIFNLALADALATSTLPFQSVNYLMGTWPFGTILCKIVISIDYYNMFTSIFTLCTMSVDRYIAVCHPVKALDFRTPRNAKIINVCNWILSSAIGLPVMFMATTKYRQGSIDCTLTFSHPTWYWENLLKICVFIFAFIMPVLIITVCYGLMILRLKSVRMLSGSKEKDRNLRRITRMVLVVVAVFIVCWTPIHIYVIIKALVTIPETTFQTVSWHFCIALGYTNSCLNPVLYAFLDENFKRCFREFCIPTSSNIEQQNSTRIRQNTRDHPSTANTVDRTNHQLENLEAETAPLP
1-phosphatidylinositol 4,5-bisphosphate phosphodiesterase beta-3, sequence (Q01970 whole entry): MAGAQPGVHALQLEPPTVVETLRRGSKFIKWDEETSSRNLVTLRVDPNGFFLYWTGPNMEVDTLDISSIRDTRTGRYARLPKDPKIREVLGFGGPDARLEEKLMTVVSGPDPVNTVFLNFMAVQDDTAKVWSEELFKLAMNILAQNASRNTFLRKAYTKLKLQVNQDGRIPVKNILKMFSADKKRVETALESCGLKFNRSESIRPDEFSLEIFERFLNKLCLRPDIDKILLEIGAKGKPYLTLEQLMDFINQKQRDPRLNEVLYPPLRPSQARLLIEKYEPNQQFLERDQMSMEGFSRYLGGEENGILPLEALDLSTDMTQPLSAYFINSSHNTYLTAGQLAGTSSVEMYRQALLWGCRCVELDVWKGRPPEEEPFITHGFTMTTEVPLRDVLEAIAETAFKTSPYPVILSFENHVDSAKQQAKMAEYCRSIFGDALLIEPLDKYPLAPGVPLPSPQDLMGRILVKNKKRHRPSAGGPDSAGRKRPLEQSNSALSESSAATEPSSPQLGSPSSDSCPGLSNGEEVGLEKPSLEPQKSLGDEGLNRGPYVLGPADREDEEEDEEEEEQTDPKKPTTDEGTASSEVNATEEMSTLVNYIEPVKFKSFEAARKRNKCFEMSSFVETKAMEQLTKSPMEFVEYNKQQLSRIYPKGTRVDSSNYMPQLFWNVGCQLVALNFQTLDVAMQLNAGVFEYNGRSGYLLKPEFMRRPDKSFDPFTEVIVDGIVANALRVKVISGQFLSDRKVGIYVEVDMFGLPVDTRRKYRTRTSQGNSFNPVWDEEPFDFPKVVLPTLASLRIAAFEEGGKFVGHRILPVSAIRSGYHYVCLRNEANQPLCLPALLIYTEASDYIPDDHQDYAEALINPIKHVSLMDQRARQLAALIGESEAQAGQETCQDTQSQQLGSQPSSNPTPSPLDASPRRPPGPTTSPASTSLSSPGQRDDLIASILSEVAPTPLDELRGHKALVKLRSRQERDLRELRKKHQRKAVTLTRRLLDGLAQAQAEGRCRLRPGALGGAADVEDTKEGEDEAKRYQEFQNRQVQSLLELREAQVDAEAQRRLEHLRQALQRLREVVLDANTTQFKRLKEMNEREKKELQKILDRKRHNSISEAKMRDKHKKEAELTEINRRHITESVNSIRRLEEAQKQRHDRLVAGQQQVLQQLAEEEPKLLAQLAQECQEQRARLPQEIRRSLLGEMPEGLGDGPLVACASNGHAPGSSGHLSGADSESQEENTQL

Take `CN1[C@@H]2c3ccc(-c4cccnc4)c(=O)n3C[C@@H]2[C@@H](CO)[C@@H]1C(=O)N1CCc2ccccc2C1`: the AC50 (in the assay on HEK293; in assay [1]) was > 52 µM (inactive) throughout.
Take `CC(=O)N[C@H]1[C@@H](O[C@@H]2OC(C[C@@H](O)C3O[C@@H](n4ccc(=O)[nH]c4=O)[C@H](O)[C@@H]3O)[C@H](O)[C@H](O)[C@H]2NC(=O)/C=C/CCCCCCCCCCC(C)C)O[C@H](CO)[C@@H](O)[C@@H]1O` (stereo partly specified): in assay [2], the AC50 was 13.5 µM (active).
As for `O=S(=O)(Nc1cc(SCc2ccccc2)c(O)c2ccccc12)c1ccc(Cl)cc1`, the CC50 in assay [3] is 15 µM (active).
Turning to `COC(=O)c1cc(Br)cnc1N1CCC(NC2CCCC(O)C2)CC1` (stereo unspecified), the values for the IC50 (in assay [4]; at Mu-type opioid receptor) were > 50 µM (inactive) and 16 µM (inactive), respectively.
Take `COc1ccc(S(=O)(=O)N2CCC3(CC2)CN(Cc2ccncc2)[C@@H](CO)c2[nH]c4cc(OC)ccc4c23)cc1`: the half-maximal activity concentration (AC50) in assay [5] was 1.41 µM (active); in [6] it was 22.9 µM (active); in assay [7], 2.29 µM (active); in assay [8] it was 1.17 µM (active); in [9] it was 1.67 µM (active).
`Cn1c(-n2c(=O)nc3n(C)c4ccccc4n3c2=O)nc2ccccc21` returned an AbsAC90 in [10] of 268.91 µM.
For the molecule `Nc1ncnc2c1ncn2[C@@H]1O[C@H](COP(=O)(O)CP(=O)(O)O)[C@@H](O)[C@H]1O` [PHOSPHOMETHYLPHOSPHONIC ACID ADENOSYL ESTER], the IC50 in assay [11] was 2.2 µM (active); in [12], > 122 µM (inactive).
On to `CCn1cc(C(=O)O)c(=O)c2cnc(N3CCNCC3)nc21` [PIPEMIDIC ACID], for which the IC50 in [13], in assay [14], in assay [15], in assay [16], in [17] and in [18] was > 20 µM (inactive) in each case. For the same molecule, the IC50 in assay [19] is > 20 µM (inactive).
